The values that follow are results of earlier work, collected in US7514592B2, “Inducible heart attack animal model” (Massachusetts Institute of Technology, priority 2004, dated 2009).

Structures are written as SMILES.

For this series, the system named is SR-BI knockout females. To be noted: homozygous SR-BI knockout dams (infertile); administered during the breeding protocol.

On to `CC(C)(Sc1cc(C(C)(C)C)c(O)c(C(C)(C)C)c1)Sc1cc(C(C)(C)C)c(O)c(C(C)(C)C)c1` [probucol], for which the “fertility in SR-BI knockout females” value is “restore fertility”.
